Assay results: the CheMixHub drug solubility set

Test: xn = mol fraction of the nth substance listed, in the solute-free solvent

CCC(C)n1ncn(-c2ccc(N3CCN(c4ccc(OCC5COC(Cn6cncn6)(c6ccc(Cl)cc6Cl)O5)cc4)CC3)cc2)c1=O (stereo not drawn) + ClC(Cl)Cl + CCO
solubility (g/100 g solution)
Conditions | x2 = 0.04158 | x2 = 0.08894 | x2 = 0.1434 | x2 = 0.2065 | x2 = 0.2808 | x2 = 0.3694 | x2 = 0.4767 | x2 = 0.6097 | x2 = 0.7785
288.15 K | 0.0692 | 0.133 | 0.268 | 0.494 | 1.05 | 3.89 | 10.7 | 19.4 | 26.1
293.15 K | 0.0835 | 0.16 | 0.32 | 0.565 | 1.38 | 4.82 | 12 | 20.6 | 26.9
298.15 K | 0.0993 | 0.189 | 0.375 | 0.644 | 1.77 | 6 | 13.4 | 21.8 | 27.8
303.15 K | 0.117 | 0.225 | 0.442 | 0.733 | 2.24 | 7.3 | 14.8 | 23 | 28.7
308.15 K | 0.138 | 0.267 | 0.516 | 0.832 | 2.82 | 8.83 | 16.4 | 24.2 | 29.5

CCC(C)n1ncn(-c2ccc(N3CCN(c4ccc(OCC5COC(Cn6cncn6)(c6ccc(Cl)cc6Cl)O5)cc4)CC3)cc2)c1=O (stereo not drawn) + ClC(Cl)Cl + CO
solubility (g/100 g solution)
Conditions | x2 = 0.02929 | x2 = 0.06358 | x2 = 0.1043 | x2 = 0.1533 | x2 = 0.2136 | x2 = 0.2895 | x2 = 0.3879 | x2 = 0.5207 | x2 = 0.7097
288.15 K | 0.123 | 0.229 | 0.436 | 0.789 | 1.79 | 5.31 | 16.6 | 24.9 | 29.3
293.15 K | 0.147 | 0.272 | 0.515 | 0.931 | 2.3 | 6.83 | 18.2 | 26.3 | 30.1
298.15 K | 0.174 | 0.318 | 0.607 | 1.09 | 2.88 | 8.58 | 19.9 | 27.7 | 30.9
303.15 K | 0.205 | 0.373 | 0.708 | 1.29 | 3.66 | 10.8 | 21.7 | 29.1 | 31.7
308.15 K | 0.242 | 0.434 | 0.827 | 1.5 | 4.54 | 13.4 | 23.6 | 30.4 | 32.5

CN1CCN(C2=Nc3cc(Cl)ccc3Nc3ccccc32)CC1 + ClC(Cl)Cl + Cc1ccccc1
solubility (g/100 g solution)
Conditions | x2 = 0.07983 | x2 = 0.1632 | x2 = 0.2513 | x2 = 0.3428 | x2 = 0.4382 | x2 = 0.5396 | x2 = 0.6452 | x2 = 0.7576 | x2 = 0.8755
293.15 K | 2.67 | 2.81 | 3.33 | 3.96 | 4.41 | 5.51 | 6.99 | 8.93 | 11.8
298.15 K | 3.12 | 3.3 | 3.67 | 4.31 | 4.65 | 6.29 | 7.75 | 10.1 | 12.8
303.15 K | 3.39 | 3.85 | 4.08 | 4.65 | 5.25 | 6.98 | 8.51 | 10.9 | 13.3
308.15 K | 3.94 | 4.46 | 4.87 | 5.59 | 6.7 | 7.99 | 9.81 | 12.6 | 14.4
313.15 K | 4.95 | 5.37 | 6 | 6.97 | 7.69 | 9.1 | 11.1 | 13.9 | 16.5
318.15 K | 5.94 | 6.56 | 6.71 | 8.12 | 9.11 | 10.3 | 12.3 | 16.2 | 19.1
323.15 K | 6.09 | 7.9 | 9.16 | 10 | 10.9 | 12.6 | 15.7 | 19.2 | 22.4
